# Assay results as given in US20260078103A1, “ISOQUINOLONES AS PI3K INHIBITORS” (OnKure, Inc., priority 2022, published 2026).
# Tested on: phosphorylation of AKT (pAKT) in T47D cells expressing mutant PI3Ka (H1047R)
# Assay: In vitro cell pAKT (Ser473) HTRF, T47D cells
# Type: cell-based
# Conditions: Homo sapiens, T47D, 6 h, cellular pAKT, T47D cells, mutant PI3Ka (H1047R), 6 hours; read-out: Avg T-47D IC50
# In short: (§1)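 pAKT (Ser473) was quantified by HTRF in lysates from cells exposed 6 h at 37 °C to 10-point compound series, with T47D in insulin-supplemented RPMI/10% FBS and SKBR3 in McCoy's 5a/10% FBS. Controls: 0.1% DMSO (high) and 10 uM alpelisib (low). IC50 from sigmoidal curve fitting.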
row,SMILES,IC50
1,Cc1cc([C@@H](C)Nc2ccc(Cl)nc2C(=O)O)c2cc(N3CCN(C4COC4)CC3)n(C)c(=O)c2c1 [Example 148],500 to 2000 nM
2,Cc1cc([C@@H](C)Nc2ccccc2C(=O)O)c2cc(N3CC(c4ccccn4)C3)n(C)c(=O)c2c1 [Example 152],1 to 500 nM
3,Cc1cc([C@@H](C)Nc2ccccc2C(=O)O)c2cc(N3CCN(CC4OCCO4)CC3)n(C)c(=O)c2c1 [Example 157],1 to 500 nM
4,CON1CCN(c2cc3c([C@@H](C)Nc4ccccc4C(=O)O)cc(C)cc3c(=O)n2C)CC1 [Example 158],1 to 500 nM
5,Cc1cc([C@@H](C)Nc2ccccc2C(=O)O)c2cc(N3CCN(Cc4ccccn4)CC3)n(C)c(=O)c2c1 [Example 175],1 to 500 nM
6,Cc1cc([C@@H](C)Nc2ccccc2C(=O)O)c2cc(N3CCN(Cc4cccc(C)n4)CC3)n(C)c(=O)c2c1 [Example 176],1 to 500 nM

# Same assay, conditions: cellular pAKT, T47D cells, mutant PI3Ka (H1047R), 6 hours; read-out: Avg T-47D IC50
row,SMILES,IC50
1,Cc1cc(C(C)Nc2ccccc2C(=O)O)c2cc(N3CCC4(CCN(CC(F)(F)F)CC4)CC3)n(C)c(=O)c2c1 (stereo not shown) [Example 91],1 to 500 nM
2,Cc1cc(C(C)Nc2ccccc2C(=O)O)c2cc(N3CC4CCCC(C4)C3)n(C)c(=O)c2c1 (stereo not shown) [Example 116],500 to 2000 nM
3,Cc1cc(C(C)Nc2ccccc2C(=O)O)c2cc(C#Cc3cccc(C#N)c3)n(C)c(=O)c2c1 (stereo not shown) [Example 159],500 to 2000 nM
4,Cc1cc([C@@H](C)Nc2ccccc2C(=O)O)c2cc(N3CCN(c4cccc(Cl)c4)CC3)n(C)c(=O)c2c1 [Example 160],1 to 500 nM
5,Cc1cc([C@@H](C)Nc2ccccc2C(=O)O)c2cc(N3CCN(c4cccc(C#N)c4)CC3)n(C)c(=O)c2c1 [Example 161],1 to 500 nM
6,Cc1cc([C@@H](C)Nc2ccccc2C(=O)O)c2cc(N3CCN(CC(F)F)CC3)n(C)c(=O)c2c1 [Example 162],1 to 500 nM
7,Cc1cc([C@@H](C)Nc2ccccc2C(=O)O)c2cc(N3CCC(C)(C#N)CC3)n(C)c(=O)c2c1 [Example 164],1 to 500 nM
8,Cc1cc([C@@H](C)Nc2ccccc2C(=O)O)c2cc(N3CC(C)(C#N)C3)n(C)c(=O)c2c1 [Example 165],1 to 500 nM
9,Cc1cc(C(C)Nc2ccccc2C(=O)O)c2cc(N3CC4(CCN(CC(F)(F)F)C4)C3)n(C)c(=O)c2c1 (stereo not shown) [Example 171],1 to 500 nM
10,Cc1cc(C(C)Nc2ccccc2C(=O)O)c2cc(N3CC4(CCN(CC(F)(F)F)CC4)C3)n(C)c(=O)c2c1 (stereo not shown) [Example 172],1 to 500 nM

# Tested on: SKBR3 cells express WT PI3Ka
# Assay: In vitro cell proliferation, SKBR3 cells (CellTiter-Glo)
# Type: cell-based
# Conditions: Homo sapiens, SK-BR-3, 72 h, inhibition of proliferation
# In short: (§2)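 T47D (PI3Kα H1047R; RPMI, 10% FBS, insulin 0.2 units/mL) or SKBR3 (WT PI3Kα; McCoys 5a, 10% FBS) cells seeded at 1,500 cells/well on 10-point compound dilutions, grown 72 h at 37 °C. CellTiter-Glo luminescence; inhibition normalised to 0.1% DMSO and 10 uM alpelisib, EC50 from four-parameter fit.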
row,SMILES,EC50
1,Cc1cc([C@@H](C)Nc2ccc(Cl)nc2C(=O)O)c2cc(N3CCN(C4COC4)CC3)n(C)c(=O)c2c1 [Example 148],> 15000 nM
2,Cc1cc([C@@H](C)Nc2ccccc2C(=O)O)c2cc(N3CC(c4ccccn4)C3)n(C)c(=O)c2c1 [Example 152],> 15000 nM
3,Cc1cc([C@@H](C)Nc2ccccc2C(=O)O)c2cc(N3CCN(CC4OCCO4)CC3)n(C)c(=O)c2c1 [Example 157],> 15000 nM
4,CON1CCN(c2cc3c([C@@H](C)Nc4ccccc4C(=O)O)cc(C)cc3c(=O)n2C)CC1 [Example 158],> 15000 nM
5,Cc1cc([C@@H](C)Nc2ccccc2C(=O)O)c2cc(N3CCN(Cc4ccccn4)CC3)n(C)c(=O)c2c1 [Example 175],2000 to 15000 nM
6,Cc1cc([C@@H](C)Nc2ccccc2C(=O)O)c2cc(N3CCN(Cc4cccc(C)n4)CC3)n(C)c(=O)c2c1 [Example 176],2000 to 15000 nM

# Same assay, conditions: inhibition of proliferation, 72 hours
row,SMILES,EC50
1,Cc1cc(C(C)Nc2ccccc2C(=O)O)c2cc(N3CCC4(CCN(CC(F)(F)F)CC4)CC3)n(C)c(=O)c2c1 (stereo not shown) [Example 91],2000 to 15000 nM
2,Cc1cc(C(C)Nc2ccccc2C(=O)O)c2cc(N3CC4CCCC(C4)C3)n(C)c(=O)c2c1 (stereo not shown) [Example 116],> 15000 nM
3,Cc1cc(C(C)Nc2ccccc2C(=O)O)c2cc(C#Cc3cccc(C#N)c3)n(C)c(=O)c2c1 (stereo not shown) [Example 159],> 15000 nM
4,Cc1cc([C@@H](C)Nc2ccccc2C(=O)O)c2cc(N3CCN(c4cccc(Cl)c4)CC3)n(C)c(=O)c2c1 [Example 160],> 15000 nM
5,Cc1cc([C@@H](C)Nc2ccccc2C(=O)O)c2cc(N3CCN(c4cccc(C#N)c4)CC3)n(C)c(=O)c2c1 [Example 161],2000 to 15000 nM
6,Cc1cc([C@@H](C)Nc2ccccc2C(=O)O)c2cc(N3CCN(CC(F)F)CC3)n(C)c(=O)c2c1 [Example 162],> 15000 nM
7,Cc1cc([C@@H](C)Nc2ccccc2C(=O)O)c2cc(N3CCC(C)(C#N)CC3)n(C)c(=O)c2c1 [Example 164],2000 to 15000 nM
8,Cc1cc([C@@H](C)Nc2ccccc2C(=O)O)c2cc(N3CC(C)(C#N)C3)n(C)c(=O)c2c1 [Example 165],> 15000 nM
9,Cc1cc(C(C)Nc2ccccc2C(=O)O)c2cc(N3CC4(CCN(CC(F)(F)F)C4)C3)n(C)c(=O)c2c1 (stereo not shown) [Example 171],> 15000 nM
10,Cc1cc(C(C)Nc2ccccc2C(=O)O)c2cc(N3CC4(CCN(CC(F)(F)F)CC4)C3)n(C)c(=O)c2c1 (stereo not shown) [Example 172],> 15000 nM

# Tested on: phosphorylation of AKT (pAKT) in SKBR3 cells express WT PI3Ka
# Assay: In vitro cell pAKT (Ser473) HTRF, SKBR3 cells
# Type: cell-based
# Conditions: Homo sapiens, SK-BR-3, 6 h, cellular pAKT
# In short: as §1
row,SMILES,IC50
1,Cc1cc([C@@H](C)Nc2ccc(Cl)nc2C(=O)O)c2cc(N3CCN(C4COC4)CC3)n(C)c(=O)c2c1 [Example 148],> 15000 nM
2,Cc1cc([C@@H](C)Nc2ccccc2C(=O)O)c2cc(N3CC(c4ccccn4)C3)n(C)c(=O)c2c1 [Example 152],> 15000 nM
3,Cc1cc([C@@H](C)Nc2ccccc2C(=O)O)c2cc(N3CCN(CC4OCCO4)CC3)n(C)c(=O)c2c1 [Example 157],> 15000 nM
4,CON1CCN(c2cc3c([C@@H](C)Nc4ccccc4C(=O)O)cc(C)cc3c(=O)n2C)CC1 [Example 158],> 15000 nM
5,Cc1cc([C@@H](C)Nc2ccccc2C(=O)O)c2cc(N3CCN(Cc4ccccn4)CC3)n(C)c(=O)c2c1 [Example 175],> 15000 nM
6,Cc1cc([C@@H](C)Nc2ccccc2C(=O)O)c2cc(N3CCN(Cc4cccc(C)n4)CC3)n(C)c(=O)c2c1 [Example 176],> 15000 nM

# Same assay, conditions: cellular pAKT, 6 hours
row,SMILES,IC50
1,Cc1cc(C(C)Nc2ccccc2C(=O)O)c2cc(N3CCC4(CCN(CC(F)(F)F)CC4)CC3)n(C)c(=O)c2c1 (stereo not shown) [Example 91],> 15000 nM
2,Cc1cc(C(C)Nc2ccccc2C(=O)O)c2cc(N3CC4CCCC(C4)C3)n(C)c(=O)c2c1 (stereo not shown) [Example 116],> 15000 nM
3,Cc1cc(C(C)Nc2ccccc2C(=O)O)c2cc(C#Cc3cccc(C#N)c3)n(C)c(=O)c2c1 (stereo not shown) [Example 159],> 15000 nM
4,Cc1cc([C@@H](C)Nc2ccccc2C(=O)O)c2cc(N3CCN(c4cccc(Cl)c4)CC3)n(C)c(=O)c2c1 [Example 160],> 15000 nM
5,Cc1cc([C@@H](C)Nc2ccccc2C(=O)O)c2cc(N3CCN(c4cccc(C#N)c4)CC3)n(C)c(=O)c2c1 [Example 161],2000 to 15000 nM
6,Cc1cc([C@@H](C)Nc2ccccc2C(=O)O)c2cc(N3CCN(CC(F)F)CC3)n(C)c(=O)c2c1 [Example 162],2000 to 15000 nM
7,Cc1cc([C@@H](C)Nc2ccccc2C(=O)O)c2cc(N3CCC(C)(C#N)CC3)n(C)c(=O)c2c1 [Example 164],2000 to 15000 nM
8,Cc1cc([C@@H](C)Nc2ccccc2C(=O)O)c2cc(N3CC(C)(C#N)C3)n(C)c(=O)c2c1 [Example 165],> 15000 nM
9,Cc1cc(C(C)Nc2ccccc2C(=O)O)c2cc(N3CC4(CCN(CC(F)(F)F)C4)C3)n(C)c(=O)c2c1 (stereo not shown) [Example 171],> 15000 nM
10,Cc1cc(C(C)Nc2ccccc2C(=O)O)c2cc(N3CC4(CCN(CC(F)(F)F)CC4)C3)n(C)c(=O)c2c1 (stereo not shown) [Example 172],> 15000 nM

# Tested on: T47D cells expressing mutant PI3Ka (H1047R)
# Assay: In vitro cell proliferation, T47D cells (CellTiter-Glo)
# Type: cell-based
# Conditions: Homo sapiens, T47D, 72 h, inhibition of proliferation, read-out: Avg T-47D EC50
# In short: as §2
row,SMILES,EC50
1,Cc1cc([C@@H](C)Nc2ccc(Cl)nc2C(=O)O)c2cc(N3CCN(C4COC4)CC3)n(C)c(=O)c2c1 [Example 148],500 to 2000 nM
2,Cc1cc([C@@H](C)Nc2ccccc2C(=O)O)c2cc(N3CC(c4ccccn4)C3)n(C)c(=O)c2c1 [Example 152],500 to 2000 nM
3,Cc1cc([C@@H](C)Nc2ccccc2C(=O)O)c2cc(N3CCN(CC4OCCO4)CC3)n(C)c(=O)c2c1 [Example 157],1 to 500 nM
4,CON1CCN(c2cc3c([C@@H](C)Nc4ccccc4C(=O)O)cc(C)cc3c(=O)n2C)CC1 [Example 158],1 to 500 nM
5,Cc1cc([C@@H](C)Nc2ccccc2C(=O)O)c2cc(N3CCN(Cc4ccccn4)CC3)n(C)c(=O)c2c1 [Example 175],1 to 500 nM
6,Cc1cc([C@@H](C)Nc2ccccc2C(=O)O)c2cc(N3CCN(Cc4cccc(C)n4)CC3)n(C)c(=O)c2c1 [Example 176],1 to 500 nM

# Same assay, conditions: inhibition of proliferation, 72 hours, read-out: Avg T-47D EC50
row,SMILES,EC50
1,Cc1cc(C(C)Nc2ccccc2C(=O)O)c2cc(N3CCC4(CCN(CC(F)(F)F)CC4)CC3)n(C)c(=O)c2c1 (stereo not shown) [Example 91],1 to 500 nM
2,Cc1cc(C(C)Nc2ccccc2C(=O)O)c2cc(N3CC4CCCC(C4)C3)n(C)c(=O)c2c1 (stereo not shown) [Example 116],500 to 2000 nM
3,Cc1cc(C(C)Nc2ccccc2C(=O)O)c2cc(C#Cc3cccc(C#N)c3)n(C)c(=O)c2c1 (stereo not shown) [Example 159],2000 to 15000 nM
4,Cc1cc([C@@H](C)Nc2ccccc2C(=O)O)c2cc(N3CCN(c4cccc(Cl)c4)CC3)n(C)c(=O)c2c1 [Example 160],1 to 500 nM
5,Cc1cc([C@@H](C)Nc2ccccc2C(=O)O)c2cc(N3CCN(c4cccc(C#N)c4)CC3)n(C)c(=O)c2c1 [Example 161],1 to 500 nM
6,Cc1cc([C@@H](C)Nc2ccccc2C(=O)O)c2cc(N3CCN(CC(F)F)CC3)n(C)c(=O)c2c1 [Example 162],1 to 500 nM
7,Cc1cc([C@@H](C)Nc2ccccc2C(=O)O)c2cc(N3CCC(C)(C#N)CC3)n(C)c(=O)c2c1 [Example 164],1 to 500 nM
8,Cc1cc([C@@H](C)Nc2ccccc2C(=O)O)c2cc(N3CC(C)(C#N)C3)n(C)c(=O)c2c1 [Example 165],500 to 2000 nM
9,Cc1cc(C(C)Nc2ccccc2C(=O)O)c2cc(N3CC4(CCN(CC(F)(F)F)C4)C3)n(C)c(=O)c2c1 (stereo not shown) [Example 171],500 to 2000 nM
10,Cc1cc(C(C)Nc2ccccc2C(=O)O)c2cc(N3CC4(CCN(CC(F)(F)F)CC4)C3)n(C)c(=O)c2c1 (stereo not shown) [Example 172],1 to 500 nM
